Results from patent US6982276B2, “Polymorphs of an epothilone analog” (Bristol-Myers Squibb Company, priority 2000, dated 2006).

Assay: Solution calorimetry (Thermometrics Microcalorimeter) in ethanol at 25° C.
Type: physicochemical
Conditions: for Heat of Solution: in ethanol at 25° C.
Procedure: Solution calorimetry was determined using a Thermometrics Microcalorimeter in ethanol at 25° C. The solubilities were likewise determined at 25° C.

| Relative stability of the polymorph forms (concluded from the data, particularly the heat of solution) | Heat of Solution | SMILES |
| --- | --- | --- |
| more stable | 4.92 kcal/mol | C/C(=C\c1csc(C)n1)[C@@H]1CC2O[C@]2(C)CCC[C@H](C)[C@H](O)[C@@H](C)C(=O)C(C)(C)[C@@H](O)CC(=O)N1 (single isomer, unassigned) [Form A, [1S-[1R*,3R*(E),7R*,10S*,11R*,12R*,16S*]]-7,11-Dihydroxy-8,8,10,12,16-pentamethyl-3-[1-methyl-2-(2-methyl-4-thiazolyl)ethenyl]-4-aza-17-oxabicyclo[14.1.0]heptadecane-5,9-dione, Form A] |
| – | 2.36 kcal/mol | C/C(=C\c1csc(C)n1)[C@@H]1CC2O[C@]2(C)CCC[C@H](C)[C@H](O)[C@@H](C)C(=O)C(C)(C)[C@@H](O)CC(=O)N1 (single isomer, unassigned) [Form B, [1S-[1R*,3R*(E),7R*,10S*,11R*,12R*,16S*]]-7,11-Dihydroxy-8,8,10,12,16-pentamethyl-3-[1-methyl-2-(2-methyl-4-thiazolyl)ethenyl]-4-aza-17-oxabicyclo[14.1.0]heptadecane-5,9-dione, Form B] |
